Data as given in ChEMBL document CHEMBL1201862, “PubChem BioAssay data set” (2004).
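96-well plates; 48 h exposure; 5 concentrations. Endpoints by linear interpolation between flanking doses. Not reached: highest tested concentration assigned. GI50 is the concentration that inhibits growth by half.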 Calls of active or inactive are those of the source. Cut-off read from the data, not from the text of the source: active = GI50 up to about 1.1 µM and inactive = higher.

Tests used:
Test in all cases: growth of human tumour cells (NCI), 48 h
[1] = system: DU-145
[2] = system: Malme-3M
[3] = system: CAKI-1
[4] = system: HT-29
[5] = system: RPMI-8226
[6] = system: K562
[7] = system: MDA-N
[8] = system: PC-3
[9] = system: HOP-92
[10] = system: SF-268
[11] = system: KM12
[12] = system: U-251
[13] = system: SF-295
[14] = system: HCT-116
[15] = system: UACC-62
[16] = system: COLO 205
[17] = system: HOP-62
[18] = system: OVCAR-8
[19] = system: A498

Measured: GI50

O=C1C=CC(=O)c2c(O)c(N(CCCl)CCCl)c(Cl)c(O)c21
inactive: [1] > 8.63 µM | [2] 4.37 µM | [3] 4.66 µM | [4] 5.38 µM | [5] > 8.39 µM | [6] 4.79 µM | [7] 4.28 µM | [8] 5.47 µM | [9] 2.98 µM | [10] 5.46 µM | [11] 6.4 µM | [12] 5.73 µM | [13] > 10 µM | [14] 4.26 µM | [15] > 6.07 µM | [16] 3.94 µM | [17] > 9.48 µM | [18] 4.51 µM | [19] 6.15 µM

NC(Cc1cccnn1)C(=O)O (stereo unspecified)
inactive: [1] > 100 µM | [2] > 100 µM | [3] > 100 µM | [4] > 100 µM | [5] > 100 µM | [6] > 100 µM | [7] > 100 µM | [8] > 100 µM | [9] > 100 µM | [10] > 100 µM | [11] > 100 µM | [12] > 100 µM | [13] > 100 µM | [14] > 100 µM | [15] > 100 µM | [16] > 100 µM | [17] > 100 µM | [18] > 100 µM | [19] > 100 µM

CN(C1=NS(=O)(=O)N=C(N(C)c2ccccc2)O1)c1ccccc1
inactive: [1] 21.9 µM | [2] 24.2 µM | [3] 22.1 µM | [4] 22.9 µM | [5] 16.9 µM | [6] 17.7 µM | [7] 15 µM | [8] > 100 µM | [9] 23.6 µM | [10] 24.5 µM | [11] 17.8 µM | [12] 16 µM | [13] 21.8 µM | [14] 13.7 µM | [15] 14.2 µM | [16] 21.8 µM | [17] 22.9 µM | [18] 17.4 µM | [19] 20.5 µM

COc1ccccc1C1c2cc3c(cc2OC2(OC)COC(=O)C12)OCO3 (stereo unspecified)
inactive: [1] 20.4 µM | [2] 15.2 µM | [3] 20 µM | [4] 5.28 µM | [5] 8.07 µM | [6] 5.22 µM | [7] 2.24 µM | [8] 12 µM | [9] 40.4 µM | [10] 14.3 µM | [11] 4.92 µM | [12] 14.2 µM | [13] 13.2 µM | [14] 6.98 µM | [15] 6.04 µM | [16] 6.56 µM | [17] 22.2 µM | [18] 24.3 µM | [19] 6.59 µM
